Here are results for 13 compounds from ChEMBL document CHEMBL4330155, “NaBr-Induced Production of Brominated Azaphilones and Related Tricyclic Polyketides by the Marine-Derived Fungus Penicillium janthinellum HK1-6” (J Nat Prod, 2019).

≈ marks a conversion by molar mass, not a printed value.

Assay [1] deals with Staphylococcus aureus. The assay can be described thus: Antibacterial activity against Staphylococcus aureus ATCC 29213 by XTT dye based assay. In kind it is functional. Background: Tetrazolium dyes change colour on reduction, which living cells bring about.
For assay [2], the system named is Staphylococcus aureus. The assay can be described thus: Antibacterial activity against Staphylococcus aureus ATCC 43300 by XTT dye based assay. In kind it is functional.
The subject of assay [3] is Staphylococcus aureus. The assay can be described thus: Antibacterial activity against Staphylococcus aureus ATCC 25923 by XTT dye based assay. In kind it is functional.
The test system of another assay is Enterococcus faecium. The assay can be described thus: Antibacterial activity against Enterococcus faecium ATCC 35667 by XTT dye based assay. It is filed as functional.
Assay [4] deals with Staphylococcus aureus. The assay can be described thus: Antibacterial activity against Staphylococcus aureus ATCC 33591 by XTT dye based assay. It is filed as functional.
The subject of a further assay is SMMC-7721. The assay can be described thus: Cytotoxicity again human SMMC7721 cells by MTT method. It is filed as cell-based.
The subject of a further assay is Escherichia coli. The assay can be described thus: microbe, parasite or virus in culture. The following applies: ATCC 25922. In kind it is functional.
The subject of another assay is Enterococcus faecalis. The assay can be described thus: microbe, parasite or virus in culture. It is filed as functional. The note with it: ATCC 51299.

Description for Enterococcus faecalis: Antibacterial activity against Enterococcus faecalis ATCC 51299 by XTT dye based assay
Description for Escherichia coli: Antibacterial activity against Escherichia coli ATCC 25922 by XTT dye based assay

As to `CCCCCC[C@H](C)/C=C(\C)C(=O)O[C@]1(C)C(=O)C2=COC(C3=C(C)C[C@@H](O)CC3=O)=CC2=C(Br)C1=O`, the MIC was 25 µg/mL (≈ 43.4 µM) in the assay with Staphylococcus aureus [1]; 50 µg/mL (≈ 86.9 µM) in the assay with Staphylococcus aureus [2]; 12.5 µg/mL (≈ 21.7 µM) against Staphylococcus aureus [3]; 25 µg/mL (≈ 43.4 µM) in the assay with Enterococcus faecium; 12.5 µg/mL (≈ 21.7 µM) in the assay on Staphylococcus aureus [4]; > 50 µg/mL with Escherichia coli. The compound also registered an MIC against Enterococcus faecalis of 25 µg/mL (≈ 43.4 µM). In the assay on SMMC-7721, the IC50 was > 10 µM.

For the compound `Cc1cccc(O)c1C1=CC2=C(Cl)C(=O)[C@@](C)(O)C(=O)C2=CO1`, the IC50 in the assay with SMMC-7721 was > 10 µM.

Regarding `Cc1cccc(O)c1C1=CC2=CC(=O)[C@](C)(O)C(=O)C2=CO1`, the concentration for half-maximal inhibition (IC50) in the assay on SMMC-7721 was > 10 µM.

For `CCCCCC[C@H](C)/C=C(\C)C(=O)O[C@@]1(C)C(=O)c2c(cc(O)c3c2C[C@H](O)C[C@]3(C)O)[C@](C)(O)C1=O`, the MIC with Staphylococcus aureus [1] was 12.5 µg/mL (≈ 24.2 µM); with Staphylococcus aureus [2], 12.5 µg/mL (≈ 24.2 µM); against Staphylococcus aureus [3], > 50 µg/mL; against Enterococcus faecium, 25 µg/mL (≈ 48.4 µM); against Staphylococcus aureus [4], 3.13 µg/mL (≈ 6.06 µM); in the assay with Escherichia coli it was > 50 µg/mL. This compound came in with an MIC in the assay on Enterococcus faecalis of 12.5 µg/mL (≈ 24.2 µM).

Consider `CCCCCC[C@H](C)/C=C(\C)C(=O)O[C@@]1(C)C(=O)C2=COC(c3c(C)cccc3O)=CC2=C(Cl)C1=O`, for which the IC50 in the assay with SMMC-7721 is > 10 µM.

With `Cc1onc(-c2ccccc2)c1C(=O)N[C@@H]1C(=O)N2[C@@H]1SC(C)(C)[C@@H]2C(=O)[O-].[Na+]`, the MIC against Staphylococcus aureus [1] was 0.39 µg/mL; in the assay with Staphylococcus aureus [2] it was > 50 µg/mL; in the assay with Staphylococcus aureus [3], 0.2 µg/mL; against Enterococcus faecium it was > 50 µg/mL; against Staphylococcus aureus [4], > 50 µg/mL; against Escherichia coli it was > 50 µg/mL. Further, the MIC against Enterococcus faecalis is > 50 µg/mL.

Turning to `CCCCCC[C@H](C)/C=C(\C)C(=O)O`, the MIC in the assay on Staphylococcus aureus [1] was > 50 µg/mL; against Staphylococcus aureus [2], 25 µg/mL (≈ 126 µM); in the assay on Staphylococcus aureus [3] it was > 50 µg/mL; with Enterococcus faecium, > 50 µg/mL; in the assay on Staphylococcus aureus [4] it was 25 µg/mL (≈ 126 µM); in the assay on Escherichia coli, > 50 µg/mL. In addition, the MIC against Enterococcus faecalis is > 50 µg/mL.

With `CCCCCC[C@H](C)/C=C(\C)C(=O)O[C@@]1(C)C(=O)C=C2C=C(c3c(C)cccc3O)OC=C2C1=O`, the IC50 in the assay with SMMC-7721 was > 10 µM.

With `CCCCCC[C@H](C)/C=C(\C)C(=O)O[C@]1(C)C(=O)C2=COC(c3c(C)cccc3O)=CC2=C(Br)C1=O`, the MIC with Staphylococcus aureus [1] is 12.5 µg/mL (≈ 22.4 µM); with Staphylococcus aureus [2], 12.5 µg/mL (≈ 22.4 µM); against Staphylococcus aureus [3] it was 6.25 µg/mL (≈ 11.2 µM); in the assay with Enterococcus faecium, 12.5 µg/mL (≈ 22.4 µM); in the assay with Staphylococcus aureus [4], 3.13 µg/mL (≈ 5.61 µM); against Escherichia coli it was > 50 µg/mL. This compound also had an MIC in the assay on Enterococcus faecalis of 3.13 µg/mL (≈ 5.61 µM). Further, the 50% inhibitory concentration (IC50) in the assay with SMMC-7721 was > 10 µM.

For the compound `CN[C@H](CC(C)C)C(=O)N[C@H]1C(=O)N[C@@H](CC(N)=O)C(=O)N[C@H]2C(=O)N[C@H]3C(=O)N[C@H](C(=O)N[C@H](C(=O)O)c4cc(O)cc(O)c4-c4cc3ccc4O)[C@H](O)c3ccc(c(Cl)c3)Oc3cc2cc(c3O[C@@H]2O[C@H](CO)[C@@H](O)[C@H](O)[C@H]2O[C@H]2C[C@](C)(N)[C@H](O)[C@H](C)O2)Oc2ccc(cc2Cl)[C@H]1O.Cl` [VANCOMYCIN HYDROCHLORIDE], the MIC in the assay on Staphylococcus aureus [1] is 0.78 µg/mL; with Staphylococcus aureus [2], 0.78 µg/mL; with Staphylococcus aureus [3], 0.78 µg/mL; against Enterococcus faecium, 0.78 µg/mL; against Staphylococcus aureus [4], 1.56 µg/mL; against Escherichia coli, > 50 µg/mL. For the same compound, the MIC with Enterococcus faecalis is > 50 µg/mL.

For `CCCCCC[C@H](C)/C=C(\C)C(=O)O[C@@]1(C)C(=O)c2c(cc(O)c3c(C)cccc23)[C@](C)(O)C1=O`, the MIC in the assay on Staphylococcus aureus [1], against Staphylococcus aureus [2], in the assay with Staphylococcus aureus [3], in the assay with Enterococcus faecium, in the assay with Staphylococcus aureus [4] and in the assay with Escherichia coli was > 50 µg/mL each time. For the same compound, the MIC in the assay with Enterococcus faecalis is > 50 µg/mL.

As to `CCCCCC[C@H](C)/C=C(\C)C(=O)O[C@@]1(C)C(=O)C2=COC(C3=C(C)CC(O)CC3=O)=CC2=C(Cl)C1=O` (some centres not stated), the half-inhibitory concentration (IC50) with SMMC-7721 was > 10 µM.

With `CCCCCC[C@H](C)/C=C(\C)C(=O)O[C@@]1(C)C(=O)C=C2C=C(C3=C(C)C[C@@H](O)CC3=O)OC=C2C1=O`, in the assay with SMMC-7721, the IC50 was > 10 µM.

The term IC50 denotes the midpoint of a concentration-inhibition curve. Low values mean greater potency in that assay, high ones weaker potency in that assay.
